Results reported in US4364958A, “1-Substituted-3-cycloalkyl-sulfonyl-pyrrolidine-2,5-dione derivatives and fungicidal compositions thereof” (Chinoin Gyogyszer es Vegyeszeti Termekek Gyara Rt., priority 1979, dated 1982).
In brackets after ≈: the same amount, converted by molar mass. Read-outs that look alike come from different tables or passages of the source.

What was measured:
[1] = test system: Fusarium oxysporum DSM.10975; assay: minimal inhibitory concentration in Sabouraud medium; format: cell-based
Description: Fusarium oxysporum DSM.10975
(§1) As a medium Saboroud medium was employed.

[2] = test system: Fusarium graminocorum DSM.11802; assay: as above; format: cell-based
Description: Fusarium graminocorum DSM.11802
as §1

[3] = test system: Trichophyton rubrum CBS.30338; assay: as above; format: cell-based; details: Trichophyton rubrum
Description: Trichophyton rubrum CBS.30338
as §1

[4] = test system: Penicillium chrysogenium CCM.F-362; assay: as above; format: cell-based; details: for MIC: Penicillium
Description: Penicillium chrysogenium CCM.F-362
as §1

Candida albicans CBS.562 = assay: as above; format: cell-based; details: for MIC: Candida albicans
Description: Candida albicans CBS.562 "2"
as §1

Phytophtora infestans = format: cell-based
[5] = test system: Aspergillus fumigatus CBS.11326; assay: minimal inhibitory concentration in Sabouraud medium; format: cell-based; details: for MIC: Aspergillus fumigatus
Description: Aspergillus fumigatus CBS.11326
as §1

[6] = test system: Aspergillus flavus CBS.24765; assay: as above; format: cell-based; details: for MIC: Aspergillus flavus
Description: Aspergillus flavus CBS.24765
as §1

[7] = test system: Penicillium digitatum CBS.31948; assay: as above; format: cell-based; details: for MIC: Penicillium digitatum
Description: Penicillium digitatum CBS.31948
as §1

[8] = test system: Candida tropicalis CBS.433; assay: as above; format: cell-based; details: for MIC: Candida tropicalis
Description: Candida tropicalis CBS.433 "3"
as §1

[9] = test system: Microsporum gypseum ver. vinosum CBS.10064; assay: as above; format: cell-based; details: Nannizzia gypsea, 72 h
Description: Microsporum gypseum ver. vinosum CBS.10064
as §1

[10] = test system: Penicillium digitatum CCM.F-382; assay: as above; format: cell-based; details: for MIC: Penicillium digitatum
Description: Penicillium digitatum CCM.F-382
as §1

[11] = test system: Saccharomyces cerevisiae OKI.1282; assay: as above; format: cell-based; details: for MIC: Saccharomyces cerevisiae
Description: Saccharomyces cerevisiae OKI.1282
as §1

[12] = test system: Epidermophyton floccosum OKI/IV.; assay: as above; format: cell-based; details: for MIC: Epidermophyton floccosum
Description: Epidermophyton floccosum OKI/IV.
as §1

Taphrina deformans = assay: activity against phytopathogenic fungi; format: cell-based
[13] = test system: Aspergillus niger CBS.12648; assay: minimal inhibitory concentration in Sabouraud medium; format: cell-based; details: Aspergillus niger
Description: Aspergillus niger CBS.12648
as §1

Ascochyta pisi = assay: activity against phytopathogenic fungi; format: cell-based
[14] = test system: Cryptococcus neoform. 78/K16; assay: minimal inhibitory concentration in Sabouraud medium; details: read-out: minimal inhibitory concentration
[15] = test system: Sporotrichum schenkii CBS.34035; assay: as above; format: cell-based; details: 288 hours
Description: Sporotrichum schenkii CBS.34035
as §1

Cercospora beticola = assay: activity against phytopathogenic fungi; format: cell-based
Verticillium dahlise = assay: activity against phytopathogenic fungi; format: cell-based
[16] = test system: Aspergillus niger CCM.F-330; assay: minimal inhibitory concentration in Sabouraud medium; format: cell-based; details: for MIC: Aspergillus niger
Description: Aspergillus niger CCM.F-330
as §1

[17] = test system: Fusarium monoliforme DSM.11778; assay: as above; format: cell-based; details: for MIC: Fusarium
Description: Fusarium monoliforme DSM.11778
as §1

[18] = test system: Trichophyton mentagrophytes CBS.50148; assay: as above; format: cell-based; details: for MIC: Trichophyton mentagrophytes
Description: Trichophyton mentagrophytes CBS.50148
as §1

Verticillium albo-atrum = assay: activity against phytopathogenic fungi; format: cell-based
Sclerotinia sclerotiorum = assay: activity against phytopathogenic fungi; format: cell-based
Botrytis cinerea = assay: activity against phytopathogenic fungi; format: cell-based
Candida krusei 79/K47 = assay: minimal inhibitory concentration in Sabouraud medium; details: Pichia kudriavzevii, read-out: minimal inhibitory concentration
Description: Sabouraud medium was inoculated with 10^5 /ml. germ number and the propagation of the fungi was examined after 24, 48, 72, 144 and 288 hours incubation time and the minimal inhibitory concentrations were determined.

Venturia = assay: activity against phytopathogenic fungi; format: cell-based
[19] = test system: Penicillium chrysogenium CBS.19646; assay: minimal inhibitory concentration in Sabouraud medium; format: cell-based; details: for MIC: Penicillium
Description: Penicillium chrysogenium CBS.19646
as §1

[20] = test system: Fusarium culmorum DSM.11425; assay: as above; format: cell-based
Description: Fusarium culmorum DSM.11425
as §1

## O=C1CC(S(=O)(=O)C2CCCCC2)C(=O)N1c1ccccc1 (stereo not shown) [1-Phenyl-3-cyclohexyl-sulfonyl-pyrrolidine-2,5-dione]
[1]; 72 hours
  MIC: 50 µg/mL (≈ 156 µM)
[1]; 144 hours
  MIC: 75 µg/mL (≈ 233 µM)
[1]; 288 hours
  MIC: 75 µg/mL (≈ 233 µM)
[2]; 72 hours
  MIC: 50 µg/mL (≈ 156 µM)
[2]; 144 hours
  MIC: 100 µg/mL (≈ 311 µM)
[2]; 288 hours
  MIC: 100 µg/mL (≈ 311 µM)
[3]; CBS.30338, 72 h, 72 hours
  MIC: 2.5 µg/mL (≈ 7.78 µM)
[3]; CBS.30338, 144 h, 144 hours
  MIC: 10 µg/mL (≈ 31.1 µM)
[3]; CBS.30338, 288 h, 288 hours
  MIC: 10 µg/mL (≈ 31.1 µM)
[4]; 144 hours
  minimal inhibitory concentration: 150 µg/mL (≈ 467 µM)
[4]; CCM.F362, 72 h, 72 hours
  MIC: 75 µg/mL (≈ 233 µM)
[4]; CCM.F362, 144 h, 144 hours
  MIC: 200 µg/mL (≈ 622 µM)
[4]; CCM.F362, 288 h, 288 hours
  MIC: 200 µg/mL (≈ 622 µM)
Candida albicans CBS.562; 24 hours
  minimal inhibitory concentration: 50 µg/mL (≈ 156 µM)
Candida albicans CBS.562; 48 hours
  minimal inhibitory concentration: 50 µg/mL (≈ 156 µM)
Candida albicans CBS.562; CBS.562, 24 h, 24 hours
  MIC: 75 µg/mL (≈ 233 µM)
Candida albicans CBS.562; CBS.562, 48 h, 48 hours
  MIC: 100 µg/mL (≈ 311 µM)
Phytophtora infestans
  activity against Phytophtora infestans: active
[5]; 288 hours
  minimal inhibitory concentration: 200 µg/mL (≈ 622 µM)
[5]; CBS.11326, 72 h, 72 hours
  MIC: 50 µg/mL (≈ 156 µM)
[5]; CBS.11326, 144 h, 144 hours
  MIC: 150 µg/mL (≈ 467 µM)
[5]; CBS.11326, 288 h, 288 hours
  MIC: 150 µg/mL (≈ 467 µM)
[6]; 72 hours
  minimal inhibitory concentration: 75 µg/mL (≈ 233 µM)
[6]; 144 hours
  minimal inhibitory concentration: 150 µg/mL (≈ 467 µM)
[6]; 288 hours
  minimal inhibitory concentration: 200 µg/mL (≈ 622 µM)
[6]; CBS.24765, 72 h, 72 hours
  MIC: 100 µg/mL (≈ 311 µM)
[6]; CBS.24765, 144 h, 144 hours
  MIC: 200 µg/mL (≈ 622 µM)
[6]; CBS.24765, 288 h, 288 hours
  MIC: 250 µg/mL (≈ 778 µM)
[7]; 288 hours
  minimal inhibitory concentration: 50 µg/mL (≈ 156 µM)
[7]; CBS.31948, 72 h, 72 hours
  MIC: 10 µg/mL (≈ 31.1 µM)
[7]; CBS.31948, 144 h, 144 hours
  MIC: 25 µg/mL (≈ 77.8 µM)
[7]; CBS.31948, 288 h, 288 hours
  MIC: 25 µg/mL (≈ 77.8 µM)
[8]; 24 hours
  minimal inhibitory concentration: 75 µg/mL (≈ 233 µM)
[8]; 48 hours
  minimal inhibitory concentration: 75 µg/mL (≈ 233 µM)
[8]; CBS.433, 24 h, 24 hours
  MIC: 150 µg/mL (≈ 467 µM)
[8]; CBS.433, 48 h, 48 hours
  MIC: 150 µg/mL (≈ 467 µM)
[9]
  MIC: 10 µg/mL (≈ 31.1 µM)
[10]; 288 hours
  minimal inhibitory concentration: 50 µg/mL (≈ 156 µM)
[10]; CCM.F382, 144 h, 144 hours
  MIC: 50 µg/mL (≈ 156 µM)
[10]; CCM.F382, 288 h, 288 hours
  MIC: 75 µg/mL (≈ 233 µM)
[11]; 24 hours
  minimal inhibitory concentration: 75 µg/mL (≈ 233 µM)
[11]; 48 hours
  minimal inhibitory concentration: 75 µg/mL (≈ 233 µM)
[11]; OKI.1282, 24 h, 24 hours
  MIC: 50 µg/mL (≈ 156 µM)
[11]; OKI.1282, 48 h, 48 hours
  MIC: 50 µg/mL (≈ 156 µM)
[12]; 144 hours
  minimal inhibitory concentration: 2.5 µg/mL (≈ 7.78 µM)
[12]; 288 hours
  minimal inhibitory concentration: 10 µg/mL (≈ 31.1 µM)
[12]; 144 h, read-out: minimal inhibitory concentration
  MIC: 5 µg/mL (≈ 15.6 µM)
[12]; 288 h, read-out: minimal inhibitory concentration
  MIC: 5 µg/mL (≈ 15.6 µM)
[12]; read-out: Minimal inhibitory concentration inhibiting the growth
  MIC: 1 µg/mL (≈ 3.11 µM)
Taphrina deformans
  activity against Taphrina deformans: active
[13]; CBS.12648, 72 h, 72 hours
  MIC: 75 µg/mL (≈ 233 µM)
[13]; CBS.12648, 144 h, 144 hours
  MIC: 150 µg/mL (≈ 467 µM)
[13]; CBS.12648, 288 h, 288 hours
  MIC: 150 µg/mL (≈ 467 µM)
Ascochyta pisi
  activity against Ascochyta pisi: active
[14]; 24 h
  MIC: 25 µg/mL (≈ 77.8 µM)
[14]; 48 h
  MIC: 25 µg/mL (≈ 77.8 µM)
[15]
  minimal inhibitory concentration: 100 µg/mL (≈ 311 µM)
[15]; Sporotrichum, CBS.34035, 288 h
  MIC: 50 µg/mL (≈ 156 µM)
Cercospora beticola
  activity against Cercospora beticola: active
Verticillium dahlise
  activity against Verticillium dahlise: active
[16]; 72 hours
  minimal inhibitory concentration: 75 µg/mL (≈ 233 µM)
[16]; 144 hours
  minimal inhibitory concentration: 150 µg/mL (≈ 467 µM)
[16]; 288 hours
  minimal inhibitory concentration: 150 µg/mL (≈ 467 µM)
[16]; CCM.F330, 72 h, 72 hours
  MIC: 150 µg/mL (≈ 467 µM)
[16]; CCM.F330, 144 h, 144 hours
  MIC: 200 µg/mL (≈ 622 µM)
[16]; CCM.F330, 288 h, 288 hours
  MIC: 250 µg/mL (≈ 778 µM)
[17]; 72 hours
  minimal inhibitory concentration: 75 µg/mL (≈ 233 µM)
[17]; 288 hours
  minimal inhibitory concentration: 200 µg/mL (≈ 622 µM)
[17]; DSM.11778, 72 h, 72 hours
  MIC: 100 µg/mL (≈ 311 µM)
[17]; DSM.11778, 144 h, 144 hours
  MIC: 150 µg/mL (≈ 467 µM)
[17]; DSM.11778, 288 h, 288 hours
  MIC: 150 µg/mL (≈ 467 µM)
[18]; 72 hours
  minimal inhibitory concentration: 2.5 µg/mL (≈ 7.78 µM)
[18]; CBS.50148, 72 h, 72 hours, read-out: minimal inhibitory concentration
  MIC: 5 µg/mL (≈ 15.6 µM)
[18]; CBS.50148, 144 h, 144 hours, read-out: minimal inhibitory concentration
  MIC: 10 µg/mL (≈ 31.1 µM)
[18]; CBS.50148, read-out: Minimal inhibitory concentration inhibiting the growth
  MIC: 2.5 µg/mL (≈ 7.78 µM)
Verticillium albo-atrum
  activity against Verticillium albo-atrum: active
Sclerotinia sclerotiorum
  activity against Sclerotinia sclerotiorum: active
Botrytis cinerea
  activity against Botrytis cinerea: active
Candida krusei 79/K47; 79/K47, 24 h
  MIC: 10 µg/mL (≈ 31.1 µM)
Candida krusei 79/K47; 79/K47, 48 h
  MIC: 10 µg/mL (≈ 31.1 µM)
Venturia
  activity against Venturia: active
[19]; 288 hours
  minimal inhibitory concentration: 150 µg/mL (≈ 467 µM)
[19]; CBS.19646, 72 h, 72 hours
  MIC: 50 µg/mL (≈ 156 µM)
[19]; CBS.19646, 144 h, 144 hours
  MIC: 75 µg/mL (≈ 233 µM)
[19]; CBS.19646, 288 h, 288 hours
  MIC: 75 µg/mL (≈ 233 µM)
[20]; 72 hours
  MIC: 50 µg/mL (≈ 156 µM)
[20]; 144 hours
  MIC: 50 µg/mL (≈ 156 µM)
[20]; 288 hours
  MIC: 100 µg/mL (≈ 311 µM)
